In patent publication US20090048295A1, “SUBSTITUTED 5,6,7,8-TETRAHYDROQUINOLINE DERIVATIVES, COMPOSITIONS, AND METHODS OF USE THEREOF” (priority 2007, published 2009):

Molecular target: T1, C5a receptor (Homo sapiens, UniProt P21730)
T1 sequence (P21730 1-350): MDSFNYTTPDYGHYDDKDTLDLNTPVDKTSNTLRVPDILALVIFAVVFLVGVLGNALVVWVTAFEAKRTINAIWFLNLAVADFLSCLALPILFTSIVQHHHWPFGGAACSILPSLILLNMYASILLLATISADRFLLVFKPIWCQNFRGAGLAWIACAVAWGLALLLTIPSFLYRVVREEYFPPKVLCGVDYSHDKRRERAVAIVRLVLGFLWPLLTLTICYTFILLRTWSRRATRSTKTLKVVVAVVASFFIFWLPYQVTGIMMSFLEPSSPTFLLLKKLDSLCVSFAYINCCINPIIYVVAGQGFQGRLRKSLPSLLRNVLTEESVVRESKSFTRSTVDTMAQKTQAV
Assay: [125I]-C5a Radioligand Binding Assay (competition binding, differentiated U937 cells);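 note: cells preincubated with compound 30 min at room temperature, then 60 min at 4 °C with radioligand, bound counts read by scintillation, nonspecific binding defined with 100 nM C5a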
Conditions: read-out: [125I]-C5a Binding % Inhibition 1 μM, test compound 1 μM; [125I]-C5a 0.05 nM; U937 cells; multiple values = duplicate experiments
Protocol: Competition binding assays for C5a receptors were performed by incubation of differentiated U937 cells (200,000 cells/well), test compound (1% DMSO) and [^125I]-C5a (Bolton & Hunter labeled, Perkin Elmer, specific activity=2200 Ci/mmol, 0.05 nM final) in binding buffer consisting of 50 mM HEPES, 5 mM MgCl2, 1 mM CaCl2, 0.5% protease-free BSA, 0.02% NaN3, pH 7.4. 100× solutions of test compounds were prepared in DMSO and further diluted in binding buffer. Non-specific binding was defined in wells containing 100 nM recombinant C5a. Cells and compound were pre-incubated for 30 min at RT. After addition of the radioligand, further incubation for 60 min occurred at 4° C. Cells were harvested on GF/B filters—presoaked in 0.5% polyethylenimine, followed by washing with binding buffer containing 500 mM NaCl, pH 7.4. Filter bound radioactivity was determined by liquid scintillation counting. IC50 and Ki values were calculated using non-linear regression in Graphpad Prism. Ki is calculated using the equation of Cheng and Prusoff (Biochem. Pharmacol. 1973, 22: 3099-3108)

SMILES	inhibition at 1 µM [%]
CCc1cccc(CC)c1-c1cc(OC)c2c(n1)CCCC2Nc1ccc(Cl)cc1CO (stereo not drawn) [Compound 9]	91
CCc1cccc(CC)c1-c1cc(OC)c2c(n1)CCCC2Nc1cc(OC)ccc1C (stereo not drawn) [Compound 11]	88
CCc1cccc(CC)c1-c1cc(OC)c2c(n1)CCCC2N1CCc2cccc(C(F)(F)F)c2C1 (stereo not drawn) [Compound 26]	93
CCc1cccc(CC)c1-c1cc(OC)c2c(n1)CCCC2NC1Cc2ccccc2C1 (stereo not drawn) [Compound 88]	25
CCc1cccc(CC)c1-c1cc(OC)c2c(n1)CCCC2N(C)Cc1ccco1 (stereo not drawn) [Compound 92]	24
CCc1cccc(CC)c1-c1cc(OC)c2c(n1)CCCC2N1CCc2ccccc21 (stereo not drawn) [Compound 93]	68
CCc1cccc(CC)c1-c1cc(OC)c2c(n1)CCCC2N(C)Cc1cccs1 (stereo not drawn) [Compound 94]	56
CCc1cccc(CC)c1-c1cc(OC)c2c(n1)CCCC2N1CCc2ccc(C#N)cc2C1 (stereo not drawn) [Compound 96]	77
CCc1cccc(CC)c1-c1cc(OC)c2c(n1)CCCC2N1CCc2ccc(C(=O)OC)cc2C1 (stereo not drawn) [Compound 97]	47
CCc1cccc(CC)c1-c1cc(OC)c2c(n1)CCCC2N1CCc2cc(C(=O)OC)ccc2C1 (stereo not drawn) [Compound 98]	43
CCc1cccc(CC)c1-c1cc(OC)c2c(n1)CCCC2N1CCc2c(cccc2C(=O)OC)C1 (stereo not drawn) [Compound 99]	59
CCc1cccc(CC)c1-c1cc(OC)c2c(n1)CCCC2N1CCc2cc(C(F)(F)F)ccc2C1 (stereo not drawn) [Compound 102]	74
CCc1cccc(CC)c1-c1cc(OC)c2c(n1)CCCC2N(C)c1cccc2ccccc12 (stereo not drawn) [Compound 104]	56
CCc1cccc(CC)c1-c1cc(OC)c2c(n1)CCCC2Oc1cccc2ccccc12 (stereo not drawn) [Compound 105]	55
COc1cc(-c2c(C)cccc2C)nc2c1C(N(C)c1cc(C)ccc1C(C)C)CCC2 (stereo not drawn) [Compound 110]	77
COc1cc(-c2c(C)cccc2C)nc2c1C(Oc1cc(C(C)C)ccc1C)CCC2 (stereo not drawn) [Compound 111]	82
COc1cc(-c2c(C)cccc2C)nc2c1C(N(C)c1cccc3c1CCN(C)C3)CCC2 (stereo not drawn) [Compound 112]	36
COc1cc(-c2c(C)cccc2C)nc2c1C(N(C)c1cccc(Cl)c1C)CCC2 (stereo not drawn) [Compound 115]	75
COc1ccc2cccc(N(C)C3CCCc4nc(-c5c(C)cccc5C)cc(OC)c43)c2c1 (stereo not drawn) [Compound 116]	87

Same assay, conditions: read-out: [125I]-C5a Binding % Inhibition 10 μM, test compound 10 μM; [125I]-C5a 0.05 nM; U937 cells; multiple values = duplicate experiments

SMILES	inhibition at 10 µM [%]
CCc1cccc(CC)c1-c1cc(OC)c2c(n1)CCCC2Nc1ccc(Cl)cc1CO (stereo not drawn) [Compound 9]	97
CCc1cccc(CC)c1-c1cc(OC)c2c(n1)CCCC2Nc1cc(OC)ccc1C (stereo not drawn) [Compound 11]	92
CCc1cccc(CC)c1-c1cc(OC)c2c(n1)CCCC2N1CCc2cccc(C(F)(F)F)c2C1 (stereo not drawn) [Compound 26]	94
CCc1cccc(CC)c1-c1cc(OC)c2c(n1)CCCC2NC1Cc2ccccc2C1 (stereo not drawn) [Compound 88]	51
CCc1cccc(CC)c1-c1cc(OC)c2c(n1)CCCC2N(C)Cc1ccco1 (stereo not drawn) [Compound 92]	62
CCc1cccc(CC)c1-c1cc(OC)c2c(n1)CCCC2N1CCc2ccccc21 (stereo not drawn) [Compound 93]	80
CCc1cccc(CC)c1-c1cc(OC)c2c(n1)CCCC2N(C)Cc1cccs1 (stereo not drawn) [Compound 94]	77
CCc1cccc(CC)c1-c1cc(OC)c2c(n1)CCCC2N1CCc2ccc(C#N)cc2C1 (stereo not drawn) [Compound 96]	87
CCc1cccc(CC)c1-c1cc(OC)c2c(n1)CCCC2N1CCc2ccc(C(=O)OC)cc2C1 (stereo not drawn) [Compound 97]	59
CCc1cccc(CC)c1-c1cc(OC)c2c(n1)CCCC2N1CCc2cc(C(=O)OC)ccc2C1 (stereo not drawn) [Compound 98]	70
CCc1cccc(CC)c1-c1cc(OC)c2c(n1)CCCC2N1CCc2c(cccc2C(=O)OC)C1 (stereo not drawn) [Compound 99]	76
CCc1cccc(CC)c1-c1cc(OC)c2c(n1)CCCC2N1CCc2cc(C(F)(F)F)ccc2C1 (stereo not drawn) [Compound 102]	80
CCc1cccc(CC)c1-c1cc(OC)c2c(n1)CCCC2N(C)c1cccc2ccccc12 (stereo not drawn) [Compound 104]	64
CCc1cccc(CC)c1-c1cc(OC)c2c(n1)CCCC2Oc1cccc2ccccc12 (stereo not drawn) [Compound 105]	70
COc1cc(-c2c(C)cccc2C)nc2c1C(N(C)c1cc(C)ccc1C(C)C)CCC2 (stereo not drawn) [Compound 110]	82
COc1cc(-c2c(C)cccc2C)nc2c1C(Oc1cc(C(C)C)ccc1C)CCC2 (stereo not drawn) [Compound 111]	85
COc1cc(-c2c(C)cccc2C)nc2c1C(N(C)c1cccc3c1CCN(C)C3)CCC2 (stereo not drawn) [Compound 112]	70
COc1cc(-c2c(C)cccc2C)nc2c1C(N(C)c1cccc(Cl)c1C)CCC2 (stereo not drawn) [Compound 115]	80
COc1ccc2cccc(N(C)C3CCCc4nc(-c5c(C)cccc5C)cc(OC)c43)c2c1 (stereo not drawn) [Compound 116]	86

Same assay, conditions: test compound 1 μM; [125I]-C5a 0.05 nM; U937 cells; multiple values = duplicate experiments

SMILES	[125I]-C5a Binding % Inhibition 1 μM [%]
CCc1cccc(CC)c1-c1cc(OC)c2c(n1)CCCC2Nc1cc(OC)ccc1C (stereo not drawn) [Compound 11]	96
CCc1cccc(CC)c1-c1cc(OC)c2c(n1)CCCC2N1CCc2cccc(C(F)(F)F)c2C1 (stereo not drawn) [Compound 26]	96

Same assay, conditions: test compound 10 μM; [125I]-C5a 0.05 nM; U937 cells; multiple values = duplicate experiments

SMILES	[125I]-C5a Binding % Inhibition 10 μM [%]
CCc1cccc(CC)c1-c1cc(OC)c2c(n1)CCCC2Nc1cc(OC)ccc1C (stereo not drawn) [Compound 11]	97
CCc1cccc(CC)c1-c1cc(OC)c2c(n1)CCCC2N1CCc2cccc(C(F)(F)F)c2C1 (stereo not drawn) [Compound 26]	99

Molecular target: T1, C5a receptor
Assay: Calcium Mobilization Assay (C5a-induced Ca2+ mobilization, FLIPR, differentiated U937 cells)
Type: cell-based
Set-up: endogenous in cells; host or cells: U937 cells differentiated with dibutyryl cAMP
Conditions: […] recombinant human C5a, 20 min pre-incubation, multiple values = duplicate experiments, read-out: C5a Induced Ca Mobil. Average IC50
Protocol: U937 cells (human monocytic cell line) were cultured in RPMI-1640 medium supplemented with 10% fetal bovine serum, 10 mM HEPES, 0.11 g/L pyruvate, 0.29 g/L L-glutamine, 100 IU/mL penicillin G and […] streptomycin. Dibutyryl cAMP (1 mM) was added to induce differentiation 2 or 3 days prior to loading the cells with 4.4 μM Fluo-3AM (Molecular Probes) for 30 min at 37° C. in RPMI medium containing 20 mM HEPES, 0.1% bovine serum albumin (BSA) and 5 mM probenecid. After washing, cells were dissolved at 2×10^6 cells/ml in HBSS buffer (Invitrogen 14190-094) supplemented with 10 mM HEPES, 2.5 mM probenecid and 0.1% BSA (pH=7.4), and sedimented by 1 min centrifugation (1500 rpm) in black 96-well plates (Costar) (200,000 cells/well). A 100× concentration range of test compounds was prepared in DMSO and further diluted in HBSS buffer. U937 cells were pre-incubated with compound for 20 minutes at room temperature (1% DMSO), before recombinant human C5a (Sigma) was added to the cells (1.5 nM). Changes in intracellular free Ca^2+ concentration were measured using the Fluorescent Imaging Plate Reader (FLIPR, Molecular Devices). Fluorescence was recorded every second from 10 seconds before the addition of C5a until 2 min after the addition. The maximal fluorescence obtained during this time frame was used for further calculations.

SMILES	IC50 [µM]
CCc1cccc(CC)c1-c1cc(OC)c2c(n1)CCCC2Nc1ccc(Cl)cc1CO (stereo not drawn) [Compound 9]	0.071
CCc1cccc(CC)c1-c1cc(OC)c2c(n1)CCCC2N1CCc2cccc(C(F)(F)F)c2C1 (stereo not drawn) [Compound 26]	0.266
CCc1cccc(CC)c1-c1cc(OC)c2c(n1)CCCC2NC1Cc2ccccc2C1 (stereo not drawn) [Compound 88]	> 10
CCc1cccc(CC)c1-c1cc(OC)c2c(n1)CCCC2N(C)Cc1ccco1 (stereo not drawn) [Compound 92]	> 10
CCc1cccc(CC)c1-c1cc(OC)c2c(n1)CCCC2N1CCc2ccccc21 (stereo not drawn) [Compound 93]	> 10
CCc1cccc(CC)c1-c1cc(OC)c2c(n1)CCCC2N(C)Cc1cccs1 (stereo not drawn) [Compound 94]	> 10
CCc1cccc(CC)c1-c1cc(OC)c2c(n1)CCCC2N1CCc2ccc(C#N)cc2C1 (stereo not drawn) [Compound 96]	> 10
CCc1cccc(CC)c1-c1cc(OC)c2c(n1)CCCC2N1CCc2ccc(C(=O)OC)cc2C1 (stereo not drawn) [Compound 97]	> 10
CCc1cccc(CC)c1-c1cc(OC)c2c(n1)CCCC2N1CCc2cc(C(=O)OC)ccc2C1 (stereo not drawn) [Compound 98]	> 10
CCc1cccc(CC)c1-c1cc(OC)c2c(n1)CCCC2N1CCc2c(cccc2C(=O)OC)C1 (stereo not drawn) [Compound 99]	> 10
CCc1cccc(CC)c1-c1cc(OC)c2c(n1)CCCC2N1CCc2cc(C(F)(F)F)ccc2C1 (stereo not drawn) [Compound 102]	> 10
CCc1cccc(CC)c1-c1cc(OC)c2c(n1)CCCC2N(C)c1cccc2ccccc12 (stereo not drawn) [Compound 104]	> 10
CCc1cccc(CC)c1-c1cc(OC)c2c(n1)CCCC2Oc1cccc2ccccc12 (stereo not drawn) [Compound 105]	> 10
COc1cc(-c2c(C)cccc2C)nc2c1C(N(C)c1cc(C)ccc1C(C)C)CCC2 (stereo not drawn) [Compound 110]	> 10
COc1cc(-c2c(C)cccc2C)nc2c1C(Oc1cc(C(C)C)ccc1C)CCC2 (stereo not drawn) [Compound 111]	> 10
COc1cc(-c2c(C)cccc2C)nc2c1C(N(C)c1cccc3c1CCN(C)C3)CCC2 (stereo not drawn) [Compound 112]	> 10
COc1cc(-c2c(C)cccc2C)nc2c1C(N(C)c1cccc(Cl)c1C)CCC2 (stereo not drawn) [Compound 115]	> 10
COc1ccc2cccc(N(C)C3CCCc4nc(-c5c(C)cccc5C)cc(OC)c43)c2c1 (stereo not drawn) [Compound 116]	> 10

Molecular target: T1, C5a receptor
Assay: not given
Conditions: not given

SMILES	Ki [µM]
CCc1cccc(CC)c1-c1cc(OC)c2c(n1)CCCC2Nc1ccc(Cl)cc1CO (stereo not drawn) [Compound 9]	0.013
CCc1cccc(CC)c1-c1cc(OC)c2c(n1)CCCC2Nc1cc(OC)ccc1C (stereo not drawn) [Compound 11]	0.01
CCc1cccc(CC)c1-c1cc(OC)c2c(n1)CCCC2N1CCc2cccc(C(F)(F)F)c2C1 (stereo not drawn) [Compound 26]	0.0097
